# From patent publication EP1310250A1, “Use of the compound 2-methoxyphenyl-1-methyl-5P-methylbenzoyl-pyrrol-2-acetamido acetate for the production of an antiinflammatory drug with prevention of gastric hypersecretion and renal impairment” (MEDOSAN Ricerca S.r.l., priority 1997, dated 1999)
# Key:
# rat gastric mucosa = details: male, Wistar, in vivo, po, 4 days
# Experimental: The animals entered in the trial, randomized and divided into groups of 6 rats each, were fasted for 16 h prior to treatment, with access to water ad libitum. They were re-fed 1 h after drug administration. The compound 2-methoxyphenyl-1-methyl-5p-methylbenzoyl-pyrrol-2-acetamido acetate and the other reference NSAIDs, suspended in 1% carboxymethylcellulose (CMC) solution, were orally administered by gastric gavage in a volume of 6ml/kg for four consecutive days. Controls received the vehicle in the same way as the treated animals. 4 h after the last administration the animals were killed by ether overdose; the stomachs were removed, rinsed with 10 ml of saline and immersed in 1% formalin. They were later opened along the greater curvature and the mucosa examined for lesions.
# The seriousness of the lesion was quantified according to a scale graduated from 1 to 3 according to the size of the lesions: 1= ulcer < 1mm; 2= ulcer 1-2mm; 3= ulcer > 2mm. The total sum was divided by 10 to obtain the "erosion index". The gastric lesions were evaluated by two independent investigators under blind conditions according to Main & Whittle method (BJ Pharmac 1975:53; p. 217-224).
# Since the average daily dose in man (for the anti-inflammatory activity) is 600 mg, the comparative efficacious dose in the rat is in the ratio of 12:1. More precisely, comparative evaluation with the other NSAID compounds was calculated as follows: 600 mg/die: 50 mg/kg = daily dose of reference NSAID in man: X [formula] where X represents the daily dose of the reference NSAID in rat. This criterion keeps into account the "real" activity ratio in man. In this work the "ratio to rat dosage" has also been included which keeps into account ratios homogeneous to the same animal species. To evaluate the "ratio to rat dosage" the ID50 has been determined using the carrageenin-induced oedema as inflammatory test.
# In order to exacerbate possible side effects on the stomach the dosage of amtolmetin guacyl was quadruplicated.
# Adjuvant arthritis = test: Adjuvant arthritis: joint inflammation and patellar bone erosion; assay type: in vivo, rats; details: patellar bone mass; MED 15 25, 50, 100mg/kg, piroxicam 3mg/kg
# Experimental: The drugs were administered daily by oral gavage for 4 days (day 0-3); piroxicam and MED 15 were dissolved in 5% Gum arabic + 0.01% Tween 80, and administered in a volume of 0.5ml. Piroxicam was administered as 3mg/kg and MED 15 was administered as 25, 50 and 100mg/kg doses. Table 8 bis illustrating dosage regimes. L=left stifle joint, R=Right stifle joint.
# Under halothane anaesthesia, rats received 200µg of heat-killed finely ground Mycobactyerium tubercolosis in 25µl (80mg/10ml sterile saline) injected intra-articulary into the left stifle joint. The contralateral joint received 25µl 0.9% sterile saline. Control animals received 25µl of 0.9% sterile saline in both knees. SGE 50µl microsyringes with a volume lock calibrated at 25µl were used with 30G stainless steel needles. Solutions were prepared sterile, and aseptic technique was used throughout, with sterilisation of syringes between groups.
# The rats were killed by carbon dioxide suffocation. The body weight was noted and the skin overlying the stifle joints was divided and the joint diameters assessed in mm using Mitutoyo vernier callipers (530-312, 0.02mm).
# The patellae were dissected, weighed (Sartorius, 0.01mg) and then immersed in 1ml digestion buffer (see below) to remove soft tissue.
# Digestive buffer was prepared fresh to the following formula; disodium hydrogen orthophosphate 20mM, EDTA 1mM and diothiothreitol at 2mM. […]
# [1] = test system: blood pressure and cardiovascular system; test: Drug safety trials on blood pressure and cardiovascular system; details: rat, in vivo
# Excerpt: From a toxicological viewpoint the drug offers an excellent torability profile.
# [2] = in vivo
# [3] = test system: fertility, embriotoxicity and teratogenicity; test: Fertility, embryotoxicity and teratogenicity studies, rat; assay type: in vivo
# rat bone marrow = test: Micronucleus test; assay type: in vivo
# Carcinogenesis = Carcinogenesis studies, gavage over life-span; assay type: in vivo, rat; details: gavage for a period covering the animal's life-span
# [4] = test system: rat isolated stomach strips; test: Gastric motility in isolated stomach strips, acetylcholine and serotonin as agonists; details: acetilcholine and serotonin as agonists (fig. 10, 11 and 12)
# diuresis = test: Diuresis in normally hydrated rats; assay type: in vivo; details: normally hydrated rats treated orally for 8 consecutive days (figure 13)
# Experimental: In the course of various studies conducted on animals to show the lack of renal impairment, a test was carried out to compare the diuresis in normally hydrated rats treated orally for 8 consecutive days with amtolmeting guacyl and diclofenac, which is also a NSAID.
# [5] = test system: CGRP (calcitonin gene related peptide); test: Peptone-stimulated gastric acid secretion after treatment with CGRP8-37; assay type: in vivo, rat; details: peptone-stimulated gastric acid secretion (fig. 14)
# rheumatoid arthritis = test: Clinical trials: antiphlogistic activity in rheumatoid arthritis; assay type: in vivo, man; set-up: key to Antiphlogistic activity evaluation: excellent ^++++; good ^+++; poor ^++
# Excerpt: Amtolmetin guacyl was compared with ibuprofen, indomethacin, piroxicam and tolmetin.
# osteoarthritis = test: Clinical trials: antiphlogistic activity in osteoarthritis; assay type: in vivo, man; set-up: key to Antiphlogistic activity evaluation: excellent ^++++; good ^+++; poor ^++
# Excerpt: In this degenerative disease amtolmetin guacyl was compared with diclofenac, diflunisal, flurbiprofen, ibuprofen, ketoprofen, naproxen and tolmetin.
# post-operative pain = test: Clinical trials: analgesic properties in post-operative pain; assay type: in vivo, man; set-up: key to Antiphlogistic activity evaluation: excellent ^++++; good ^+++; poor ^++
# Experimental: As reported in Table 14, the analgesic properties of amtolmetin guacyl were tested in postoperative pain with good results. […] The peak effect is obtained only after 2 hours, and it is maintained for 6 hours.
# [6] = test system: post-traumatic arthralgia; test: Clinical trials: analgesic properties in post-traumatic arthralgia; assay type: in vivo, man; details: Amtolmetin guacyl 600mgx2-daily, Diclofenac 50mgx2-daily, 15 patients each
# Excerpt: The same can be said in the treatment of post-traumatic arthralgia.
# COX2 (cyclooxygenase 2) = molecular target: T1, COX2 (cyclooxygenase 2) (Rattus norvegicus, UniProt P35355); test: Pharmacological studies in rats: COX2 inhibition; assay type: in vivo; details: studies conducted in rats
# T1 construct: from tissue; host or cells: rat (in vivo pharmacological studies; tissue not given)
# T1 sequence (P35355 18-604): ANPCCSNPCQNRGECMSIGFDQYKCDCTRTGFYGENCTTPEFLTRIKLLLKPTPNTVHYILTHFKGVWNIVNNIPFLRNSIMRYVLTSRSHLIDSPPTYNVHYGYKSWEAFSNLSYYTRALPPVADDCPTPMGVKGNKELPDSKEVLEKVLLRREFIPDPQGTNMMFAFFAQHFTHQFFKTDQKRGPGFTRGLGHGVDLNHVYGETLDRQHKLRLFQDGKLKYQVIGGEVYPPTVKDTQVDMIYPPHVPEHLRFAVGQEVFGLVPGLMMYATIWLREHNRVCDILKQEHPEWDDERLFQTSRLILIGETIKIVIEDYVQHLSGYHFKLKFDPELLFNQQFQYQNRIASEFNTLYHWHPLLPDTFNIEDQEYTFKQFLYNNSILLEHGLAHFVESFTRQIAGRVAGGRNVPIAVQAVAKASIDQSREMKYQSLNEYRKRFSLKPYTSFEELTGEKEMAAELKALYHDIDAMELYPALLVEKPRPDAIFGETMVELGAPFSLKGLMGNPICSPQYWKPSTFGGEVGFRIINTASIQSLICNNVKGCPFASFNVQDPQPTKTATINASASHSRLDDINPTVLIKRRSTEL
structure (smiles),measurement,setting,value
"COc1ccccc1OC(=O)CNC(=O)Cc1ccc(C(=O)c2ccc(C)cc2)n1C [amtolmetin guacyl, 2-methoxyphenyl-1-methyl-5p-methylbenzoylpyrrol-2-acetamido acetate]",Gastrolesive index,rat gastric mucosa,1.0
same,protection against bone loss,Adjuvant arthritis,dose dependent protective effect
same,effects on blood pressure and on the cardiovascular system,[1],absence of effects on blood pressure and on the cardiovascular system
same,drug tolerability,[2],excellent drug tolerability
same,"fertility, embriotoxicity and teratogenicity",[3],demonstrated the safety product
same,micronucleus test,rat bone marrow,absence of amtolmetin guacyl-related damage
same,Carcinogenesis,Carcinogenesis,innocuity of the product
same,gastric motility,[4],clear evidence of down-regulation of motility
same,diuresis,diuresis,definite increase in diuresis
same,effect of the CGRP antagonist CGRP8-37 on the activity on gastric secretion,[5],blockage of the amtolmetin guacyl - related activity on gastric secretion
same,Evaluation of antiphlogistic activity,"rheumatoid arthritis; 150 patients, 30 days, versus Ibuprofen, Indomethacin, Piroxicam, Tolmetin",Amtolmetin guacyl demonstrated statistical significant activity more rapid and more marked when compared to the reference NSAIDs in rheumatoid arthritis.
same,Antiphlogistic activity evaluation,rheumatoid arthritis; Rheumatoid arthritis,^++++
same,Evaluation of antiphlogistic activity,"osteoarthritis; 550 patients, mean 80 days, versus Diclofenac, Diflunisal, Flurbiprofen, Ibuprofen, Ketoprofen, Naproxen, Tolmetin",Amtolmetin guacyl was more rapid and more active in a statistically significant manner in osteoarthritis compared to the reference NSAIDs.
same,Antiphlogistic activity evaluation,osteoarthritis; Osteoarthritis,^++++
same,Antiphlogistic activity evaluation,post-operative pain,^++++
same,time for which the effect is maintained,post-operative pain,6 h
same,Duration,"post-operative pain; 1200mg, 100 patients",360 min
same,Latency,"post-operative pain; 1200mg, 100 patients",30 min
same,Max. time effect,"post-operative pain; 1200mg, 100 patients",180 min
same,time at which the antalgic effect is already evaluable,post-operative pain; following administration,30 '
same,Duration,[6],360 min
same,Latency,[6],20 min
same,Max. time effect,[6],60 min
same,inhibition of COX2,COX2 (cyclooxygenase 2),inhibition
